The results in this text go back to patent US5198462A, “Heterocyclic amine, derivatives, their production and use” (Takeda Chemical Industries, Ltd., priority 1990, dated 1993).

SMILES strings stand for the structures.

For experiment [1], the target named is T1, Acyl-CoA:cholesterol transferase (ACAT) (Rattus norvegicus, UniProt Q7TQM4).
T1 construct: prepared from the microsomal fraction of mucosal cells from the small intestines of 6-week old Sprague-Dawley rats; from tissue; host or cells: microsomal fraction of small-intestinal mucosal cells, Sprague-Dawley rats
T1 sequence (Q7TQM4 1-524): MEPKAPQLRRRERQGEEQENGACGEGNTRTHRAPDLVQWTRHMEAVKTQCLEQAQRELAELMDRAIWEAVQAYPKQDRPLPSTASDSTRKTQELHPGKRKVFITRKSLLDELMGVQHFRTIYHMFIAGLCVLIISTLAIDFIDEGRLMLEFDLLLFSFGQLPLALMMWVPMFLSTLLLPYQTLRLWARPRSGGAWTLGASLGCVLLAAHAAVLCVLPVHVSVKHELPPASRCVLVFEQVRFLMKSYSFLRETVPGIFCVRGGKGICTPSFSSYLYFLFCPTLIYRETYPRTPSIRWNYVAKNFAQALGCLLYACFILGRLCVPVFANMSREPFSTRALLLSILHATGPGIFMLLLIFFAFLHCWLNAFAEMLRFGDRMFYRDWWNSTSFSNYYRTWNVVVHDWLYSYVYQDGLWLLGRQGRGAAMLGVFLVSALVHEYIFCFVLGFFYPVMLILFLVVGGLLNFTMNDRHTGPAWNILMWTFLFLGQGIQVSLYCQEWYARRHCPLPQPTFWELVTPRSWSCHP
Briefly: Acyl-CoA:cholesterol transferase (ACAT)-inhibiting action. Type of experiment: biochemical, Sprague-Dawley rats. The conditions noted are these: 10^-6 M; microsomal fraction of mucosal cells from rat small intestines; labeled cholesterol ester formed from [1-14C]oleyl-CoA; read-out: ACAT inhibiting rate (%) 10^-6 M. As for the experimental part: The enzyme specimen ACAT was prepared from the microsomal fraction of mucosal cells from the small intestines of 6-week old Sprague-Dawley rats fasted for 20 hours, in accordance with the method described by Heider, et al. on Journal of Lipid Research, Vol. 24, p. 1127 (1982).
The activity of ACAT was calculated by determining the amount of labeled cholesterol ester formed from [1-^14 C]oleyl-CoA and endogenous cholesterol.
In Table 1, the inhibition rate (%) of formation of labeled cholesterol ester by the addition of test compounds (representing the compounds obtained by the following Working Examples 1 to 31) in an amount of 10^-6 M is shown as the index of the action of inhibiting ACAT.

Experiment [2] can be described thus: Plasma cholesterol lowering activity in cholesterol fed rat. Type of experiment: in vivo, Sprague-Dawley rats. The conditions noted are these: 4 days, 1% cholesterol diet, n=5, mean ± standard deviation, *p < 0.05 vs. control (control 191.0 ± 25.6). As for the experimental part: 7-week old, male Sprague-Dawley rats were fed a 1% cholesterol diet (containing 0.5% cholic acid and 5% olive oil) for three days, and then the rats were grouped according to the plasma cholesterol level (n=5). They were fed with the diet as described above containing test compound for further 4 days. Blood was collected from the rats during 8:30-10:00 am at the fed state, and the plasma cholesterol level was measured enzymatically. The amount of test compound consumed by rats was calculated on the basis of the amount of the diet consumed by the rats.

Regarding `COc1ccccc1C1=C(NC(=O)Nc2ccc(N(C)C)cc2)SCc2ccccc21` [Example 28, N-(4-Dimethylaminophenyl)-N'-[4-(2-methoxyphenyl)-1H-2-benzothiopyran-3-yl]urea], in experiment [1], the inhibition at 1 µM amounted to 92%.
As for `O=C(Nc1ccc(F)cc1F)Nc1oc(=O)c2ccc(Cl)cc2c1-c1ccccc1` [Example 1, N-(6-Chloro-4-phenylisocoumarin-3-yl)-N'-(2,4-difluorophenyl)urea], in experiment [1], the inhibition at 1 µM is 98%.
Consider `CC(=O)Oc1c(C)cc(NC(=O)Nc2oc(=O)c3ccc(Cl)cc3c2-c2ccccc2)cc1C` [Example 13, N-(6-Chloro-4-phenylisocoumarin-3-yl)-N'-(4-acetoxy-3,5-dimethylphenyl)urea], for which, in experiment [1], the inhibition at 1 µM was found to be 95.8%.
Consider `Cn1c(NC(=O)Nc2ccc(F)cc2F)c(-c2cc(C(C)(C)C)c(O)c(C(C)(C)C)c2)c2ccccc2c1=O` [Example 23, N-[4-(3,5-Di-t-butyl-4-hydroxyphenyl)-1,2-dihydro-2-methyl-1-oxoisoquinolin-3-yl-]-N'-(2,4-difluorophenyl)urea], for which the inhibition at 1 µM in experiment [1] came out at 54.3%.
For `COc1ccccc1C1=C(NC(=O)Nc2cc(C)c(OC(C)=O)c(C)c2)SCc2ccccc21` [Example 27, N-(4-Acetoxy-3,5-dimethylphenyl)-N'-[4-(2-methoxyphenyl)-1H-2-benzothiopyran-3-yl]urea], the inhibition at 1 µM in experiment [1] stood at 99.3%.
Regarding `COc1ccccc1-c1c(NC(=O)NC2CCCCC2)oc(=O)c2ccccc12` [Example 19, N-[4-(2-Methoxyphenyl)isocoumarin-3-yl]-N'-cyclohexylurea], in experiment [1], the inhibition at 1 µM came to 97.7%.
The same measure, in the same setting: in the case of `O=C(Nc1ccc(F)cc1F)Nc1oc(=O)c2ccccc2c1-c1ccccc1` [Example 12, N-(4-Phenylisocoumarin-3-yl)-N'-(2,4-difluorophenyl)urea] it was 94.2%.
With `CC(=O)Oc1c(C)cc(NC(=O)Nc2oc(=O)c3ccccc3c2-c2ccccc2)cc1C` [Example 18, N-(4-Isocoumarin-3-yl)-N'-(4-acetoxy-3,5-dimethylphenyl)urea], the inhibition at 1 µM in experiment [1] amounted to 83.2%.
The same measure, in the same setting: in the case of `CC(=O)Oc1c(C)cc(NC(=O)Nc2oc(=O)c3ccc(F)cc3c2-c2ccc(F)cc2)cc1C` [Example 17, N-[6-Fluoro-4-(4-fluorophenyl)isocoumarin-3-yl]-N'-(4-acetoxy-3,5-dimethylphenyl)urea] it was 65.7%.
Still for that read-out and setting: in the case of `CC(C)(C)OC(=O)Nc1oc(=O)c2ccc(Cl)cc2c1-c1ccccc1` [Example 2, t-Butyl N-(6-chloro-4-phenylisocoumarin-3-yl) carbamate] it was 76.1%; in that of `CCOC(=O)CNC(=O)Nc1oc(=O)c2ccccc2c1-c1ccccc1OC` [Example 20, N-[4-(2-Methoxyphenyl)isocoumarin-3-yl]-N'-ethoxycarbonyl-methylurea], 88.7%.
Turning to `COc1ccccc1-c1c(NC(=O)Nc2ccc(F)cc2F)oc(=O)c2ccccc12` [Example 15, N-[4-(2-Methoxyphenyl)isocoumarin-3-yl]-N'-(2,4difluorophenyl)urea], the inhibition at 1 µM in experiment [1] is 99.4%. In addition, the “Cholesterol in Serum” value in experiment [2] (dose 0.13 mg/kg/day in diet) came out at 125.2 ± 22.6 mg/dL.
In the case of `O=C(Nc1ccc(F)cc1F)Nc1oc(=O)c2ccccc2c1-c1ccc(F)cc1` [Example 11, N-[4-(4-Fluorophenyl)isocoumarin-3-yl]-N'-(2,4-difluorophenyl)urea], the inhibition at 1 µM in experiment [1] came out at 92.1%.
`Cc1ccc2c(=O)oc(NC(=O)Nc3ccc(F)cc3F)c(-c3ccc(F)cc3)c2c1` [Example 10, N-[4-(4-Fluorophenyl)-6-methylisocoumarin-3-yl]-N'-(2,4-difluorophenyl)urea]: the inhibition at 1 µM in experiment [1] was 98.5%.
Same read-out and setting: the figure for `CC(=O)Oc1c(C)cc(NC(=O)NC2=C(c3ccccc3)c3ccccc3CS2)cc1C` [Example 26, N-(4-acetoxy-3,5-dimethylphenyl)-N'-(4-phenyl-1H-2-benzothiopyran-3-yl)urea] is 94.8%; for `O=C(Nc1ccc(F)cc1F)Nc1oc(=O)c2ccc(F)cc2c1-c1ccc(F)cc1` [Example 16, N-[6-Fluoro-4-(4-fluorophenyl)isocoumarin-3-yl]-N'-(2,4-difluorophenyl)urea] it is 60.2%; for `Cc1cc(NC(=O)NC2=C(c3ccccc3)c3ccccc3CS2)cc(C)c1O` [Example 29, N-(4-Hydroxy-3,5-dimethylphenyl)-N'-(4-phenyl-1H-2-benzothiopyran-3-yl)urea] it is 95.5%.
With `COc1ccccc1-c1c(NC(=O)Nc2cc(C)c(OC(C)=O)c(C)c2)oc(=O)c2ccccc12` [Example 14, N-[4-(2-Methoxyphenyl)isocoumarin-3-yl]-N'-(4-acetoxy-3,5-dimethylphenyl)urea], in experiment [1], the inhibition at 1 µM is 99%. Moreover, the “Cholesterol in Serum” value in experiment [2] (dose 0.14 mg/kg/day in diet) turned out to be 103.4 ± 23.7 mg/dL.
On to `O=C(Nc1ccc(F)cc1F)Nc1oc(=O)c2cc(Cl)ccc2c1-c1ccccc1` [Example 9, N-(7-Chloro-4-phenylisocoumarin-3-yl)-N'-(2,4-difluorophenyl)urea], for which the inhibition at 1 µM in experiment [1] was determined as 89.8%.
Take `Cc1cc2c(-c3ccccc3C)c(NC(=O)Nc3ccc(F)cc3F)n(C)c(=O)c2cc1C` [Example 8, N-[1,2-Dihydro-4-(2-methylphenyl)-2,6,7-trimethyl-1-oxoisoquinolin-3-yl]-N'-(2,4-difluorophenyl)urea]: the inhibition at 1 µM in experiment [1] came out at 64.9%.
